This is an account of results in US11684616B2, “Azalactam compounds as HPK1 inhibitors” (PFIZER INC., priority 2020, dated 2023).

The target in assay [1] is Human recombinant full-length GST-tagged RPS6KA2 (RSK3) (Homo sapiens (Human), UniProt Q15349). The assay is described as follows: Biochemical selectivity kinase assay (Z'-LYTE FRET), RSK3. Particulars: for IC50: 10 μM ATP (~Km); for RSK3 IC50/HPK1 Ki: ratio of the RSK3 IC50 to the HPK1 Ki. From the text: (§1) Biochemical Selectivity Kinase Assay.
Sequence of Human recombinant full-length GST-tagged RPS6KA2 (RSK3) (Q15349 whole entry): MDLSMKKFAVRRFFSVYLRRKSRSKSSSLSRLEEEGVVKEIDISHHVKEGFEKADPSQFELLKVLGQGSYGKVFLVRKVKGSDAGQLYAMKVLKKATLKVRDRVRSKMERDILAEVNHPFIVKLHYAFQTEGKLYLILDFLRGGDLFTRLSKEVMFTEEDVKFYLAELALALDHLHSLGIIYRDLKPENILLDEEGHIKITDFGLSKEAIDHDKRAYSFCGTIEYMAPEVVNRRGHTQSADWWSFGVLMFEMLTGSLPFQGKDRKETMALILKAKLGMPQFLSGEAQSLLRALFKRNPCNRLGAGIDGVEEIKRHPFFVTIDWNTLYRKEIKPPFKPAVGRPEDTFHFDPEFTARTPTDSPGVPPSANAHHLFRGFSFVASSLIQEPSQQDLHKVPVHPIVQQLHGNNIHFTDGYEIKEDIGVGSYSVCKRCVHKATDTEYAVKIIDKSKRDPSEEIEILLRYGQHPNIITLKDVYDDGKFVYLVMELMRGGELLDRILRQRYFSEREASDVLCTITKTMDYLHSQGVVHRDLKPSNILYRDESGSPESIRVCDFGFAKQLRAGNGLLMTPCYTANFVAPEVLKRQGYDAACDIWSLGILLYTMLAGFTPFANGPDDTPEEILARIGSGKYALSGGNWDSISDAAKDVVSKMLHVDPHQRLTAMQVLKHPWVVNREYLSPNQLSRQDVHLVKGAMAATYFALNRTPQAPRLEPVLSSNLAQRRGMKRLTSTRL
(§2) The dose response curve was curve fit to model number 205 (sigmoidal dose-response model). A ratio of the PRKD2 IC50 to the HPK1 Ki and a ratio of the RSK3 IC50 to the HPK1 Ki, is provided in the respective columns adjacent to the columns for PRKD2 IC50 and RSK3 IC50.

For assay [2], the target named is Human recombinant full-length GST-tagged PRKD2 (PKD2) (Homo sapiens (Human), UniProt Q9BZL6). Kind of assay: Biochemical selectivity kinase assay (Z'-LYTE FRET), PRKD2. As to conditions: for IC50: 25 μM ATP (~Km); for PRKD2 IC50/HPK1 Ki: ratio of the PRKD2 IC50 to the HPK1 Ki.
Sequence of Human recombinant full-length GST-tagged PRKD2 (PKD2) (Q9BZL6 whole entry): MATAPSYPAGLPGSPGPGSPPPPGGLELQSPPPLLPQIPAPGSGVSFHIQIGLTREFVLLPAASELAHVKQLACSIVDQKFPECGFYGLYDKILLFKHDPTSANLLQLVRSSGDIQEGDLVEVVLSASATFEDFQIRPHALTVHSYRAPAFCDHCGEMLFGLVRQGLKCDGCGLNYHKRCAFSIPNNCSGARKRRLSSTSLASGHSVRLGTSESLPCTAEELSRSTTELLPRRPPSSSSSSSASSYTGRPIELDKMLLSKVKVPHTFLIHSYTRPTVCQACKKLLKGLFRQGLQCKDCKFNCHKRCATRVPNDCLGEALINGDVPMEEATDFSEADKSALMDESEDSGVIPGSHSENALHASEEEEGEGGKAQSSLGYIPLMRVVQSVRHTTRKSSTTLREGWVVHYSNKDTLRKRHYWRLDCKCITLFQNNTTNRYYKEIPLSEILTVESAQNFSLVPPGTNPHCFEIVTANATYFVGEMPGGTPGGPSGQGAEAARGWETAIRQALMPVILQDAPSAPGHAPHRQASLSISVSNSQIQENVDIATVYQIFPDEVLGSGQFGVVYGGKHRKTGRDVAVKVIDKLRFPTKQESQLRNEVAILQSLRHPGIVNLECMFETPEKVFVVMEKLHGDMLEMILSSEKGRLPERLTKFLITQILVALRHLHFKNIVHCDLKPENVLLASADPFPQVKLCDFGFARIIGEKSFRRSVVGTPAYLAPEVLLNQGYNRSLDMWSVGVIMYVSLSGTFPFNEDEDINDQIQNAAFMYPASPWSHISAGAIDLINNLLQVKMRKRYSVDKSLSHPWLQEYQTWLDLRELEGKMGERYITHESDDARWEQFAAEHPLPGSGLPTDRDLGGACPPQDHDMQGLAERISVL
Source text: as §1, §2

The subject of assay [3] is Phospho-SLP-76 (Ser376) in Jurkat cells. Kind of assay: Phospho-SLP-76 (Ser376) HTRF assay in anti-CD3 stimulated Jurkat cells. Format: cell-based. Particulars: Homo sapiens, Jurkat, 30 min pre-treatment, anti-CD3 stimulation 15 min, read-out: pSLP76 IC50. The method, boiled down:
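Jurkat cells pre-treated 30 min with compound (11-point 3-fold series, final 10 μM to 0.1 nM, 0.1% DMSO), then stimulated 15 min at 37° C with 200 μg/mL F(ab)2-complexed anti-CD3 (UCTH1). Lysate phospho-SLP-76 read by HTRF sandwich after overnight RT incubation; IC50 from four-parameter fit.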
For orientation: In TR-FRET formats the signal depends on donor and acceptor labels being close together.

For assay [4], the target named is human full-length autophosphorylated recombinant HPK1 (Homo sapiens (Human), UniProt Q92918). Kind of assay: HPK1 biochemical enzyme assay (chelation-enhanced fluorescence, CHEF). Particulars: 0.5 nM HPK1, 45 μM ATP, Morrison fit. The method, boiled down:
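Autophosphorylated full-length human HPK1 from Sf21 cells, His-tag removed by TEV, residual N-terminal Gly-Ser. Activity measured with a C-Sox fluorescent peptide substrate (CHEF); initial velocities followed at λex 360/λem 500 nm, 30 °C for 15 min.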

Sequence of human full-length autophosphorylated recombinant HPK1 (Q92918 other isoform, or with tags, fused parts or gaps): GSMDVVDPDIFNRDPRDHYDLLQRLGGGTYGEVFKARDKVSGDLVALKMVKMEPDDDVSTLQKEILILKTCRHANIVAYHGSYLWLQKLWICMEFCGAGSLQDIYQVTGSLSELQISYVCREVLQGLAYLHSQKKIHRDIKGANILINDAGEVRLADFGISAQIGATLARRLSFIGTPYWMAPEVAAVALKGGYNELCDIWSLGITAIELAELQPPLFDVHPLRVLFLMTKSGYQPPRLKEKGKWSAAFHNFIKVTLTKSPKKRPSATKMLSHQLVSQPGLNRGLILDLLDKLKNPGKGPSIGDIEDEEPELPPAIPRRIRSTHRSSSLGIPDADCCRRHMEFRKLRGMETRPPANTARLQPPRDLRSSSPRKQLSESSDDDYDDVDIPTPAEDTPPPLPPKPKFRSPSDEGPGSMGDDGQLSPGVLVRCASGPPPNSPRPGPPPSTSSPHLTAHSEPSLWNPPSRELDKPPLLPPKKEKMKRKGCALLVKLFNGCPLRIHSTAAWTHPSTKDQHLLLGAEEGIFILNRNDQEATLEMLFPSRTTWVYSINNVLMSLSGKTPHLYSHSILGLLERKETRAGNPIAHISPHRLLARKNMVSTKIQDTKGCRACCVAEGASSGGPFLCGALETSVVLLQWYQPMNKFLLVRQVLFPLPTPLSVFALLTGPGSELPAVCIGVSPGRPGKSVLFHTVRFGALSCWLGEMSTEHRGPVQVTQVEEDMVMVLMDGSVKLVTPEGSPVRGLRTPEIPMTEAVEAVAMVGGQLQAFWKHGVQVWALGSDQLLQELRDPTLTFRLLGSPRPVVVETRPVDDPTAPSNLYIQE

In general, IC50 refers to the concentration at which inhibition is half-maximal. Turning to `CC[C@@H](N)c1nc(N2CCC[C@H]2C)cc2c1CN(c1cccc(-c3nnc4n3[C@@H](C)CC4)n1)C2=O` [Example 1, 4-[(1R)-1-aminopropyl]-2-{6-[(5S)-5-methyl-6,7-dihydro-5H-pyrrolo[2,1-c][1,2,4]triazol-3-yl]pyridin-2-yl}-6-[(2R)-2-methylpyrrolidin-1-yl]-2,3-dihydro-1H-pyrrolo[3,4-c]pyridin-1-one], the figures for the IC50 in assay [1] and in assay [2] were 47 nM and 155 nM, respectively.
The term Ki denotes a measure of affinity in units of concentration, obtained from inhibition or displacement. For `CC[C@H]1CCc2nnc(-c3cccc(N4Cc5c(cc(N6CCC[C@H]6C)nc5[C@@H](C)N)C4=O)n3)n21` [Example 2, 4-[(1R)-1-aminoethyl]-2-{6-[(5S)-5-ethyl-6,7-dihydro-5H-pyrrolo[2,1-c][1,2,4]triazol-3-yl]pyridin-2-yl}-6-[(2R)-2-methylpyrrolidin-1-yl]-2,3-dihydro-1H-pyrrolo[3,4-c]pyridin-1-one], in assay [1], the IC50 came to 21.3 nM and the “RSK3 IC50/HPK1 Ki” value is listed as >420. In assay [3], the IC50 stood at 30 nM. In addition, in assay [2], the IC50 turned out to be 116 nM and the “PRKD2 IC50/HPK1 Ki” value is given as >2320. Besides, the Ki in assay [4] is < 0.05 nM.
Turning to `CCn1cnnc1-c1cccc(N2Cc3c(cc(C4(C)CC4)nc3[C@H](C)N)C2=O)n1` [Example 116, 4-[(1S)-1-aminoethyl]-2-[6-(4-ethyl-4H-1,2,4-triazol-3-yl)pyridin-2-yl]-6-(1-methylcyclo-propyl)-2,3-dihydro-1H-pyrrolo[3,4-c]pyridin-1-one], the IC50 in assay [3] came to 214 nM. The Ki in assay [4] was found to be 0.64 nM.
For `CCN(C)c1cc2c(c(C(C)(C)N)n1)CN(c1cccc(-c3nnc(C)n3CC)n1)C2=O` [Example 123, 4-(2-aminopropan-2-yl)-6-[ethyl(methyl)amino]-2-[6-(4-ethyl-5-methyl-4H-1,2,4-triazol-3-yl)pyridin-2-yl]-2,3-dihydro-1H-pyrrolo[3,4-c]pyridin-1-one], the IC50 in assay [3] amounted to 243 nM. Also, the inhibitory constant (Ki) in assay [4] stood at 0.97 nM.
For `CCN(C)c1cc2c(c(C(C)(C)N)n1)CN(c1cccc(-c3nncn3CC)n1)C2=O` [Example 124, 4-(2-aminopropan-2-yl)-6-[ethyl(methyl)amino]-2-[6-(4-ethyl-4H-1,2,4-triazol-3-yl)pyridin-2-yl]-2,3-dihydro-1H-pyrrolo[3,4-c]pyridin-1-one], the IC50 in assay [3] turned out to be 98 nM. Besides, the Ki in assay [4] is 0.37 nM.
Consider `CCCn1cnnc1-c1cccc(N2Cc3c(cc(N(C)C)nc3C(C)(C)N)C2=O)n1` [Example 131, 4-(2-aminopropan-2-yl)-6-(dimethyl-amino)-2-[6-(4-propyl-4H-1,2,4-triazol-3-yl)pyridin-2-yl]-2,3-dihydro-1H-pyrrolo[3,4-c]pyridin-1-one], for which the IC50 in assay [3] was 94 nM. For the same compound, in assay [4], the Ki worked out at 1.02 nM.
The like results for `CCn1cnnc1-c1cccc(N2Cc3c(cc(N(C)C)nc3C(C)(C)N)C2=O)n1` [Example 132, 4-(2-aminopropan-2-yl)-6-(dimethyl-amino)-2-[6-(4-ethyl-4H-1,2,4-triazol-3-yl)pyridin-2-yl]-2,3-dihydro-1H-pyrrolo[3,4-c]pyridin-1-one] were, in that order, 148 nM and 0.38 nM.
For `CCCn1c(C)nnc1-c1cccc(N2Cc3c(cc(N4CCC[C@H]4C)nc3C(C)(C)N)C2=O)n1` [Example 133, 4-(2-aminopropan-2-yl)-2-[6-(5-methyl-4-propyl-4H-1,2,4-triazol-3-yl)pyridin-2-yl]-6-[(2R)-2-methylpyrroli-din-1-yl]-2,3-dihydro-1H-pyrrolo[3,4-c]pyridin-1-one], the IC50 in assay [3] worked out at 95 nM. For the same compound, the Ki in assay [4] amounted to 0.12 nM.
The like results for `CCn1c(C)nnc1-c1cccc(N2Cc3c(cc(N4CCC[C@H]4C)nc3C(C)(C)N)C2=O)n1` [Example 134, 4-(2-aminopropan-2-yl)-2-[6-(4-ethyl-5-methyl-4H-1,2,4-triazol-3-yl)pyridin-2-yl]-6-[(2R)-2-methylpyrroli-din-1-yl]-2,3-dihydro-1H-pyrrolo[3,4-c]pyridin-1-one] were, in that order, 106 nM and 0.22 nM.
On to `CCCn1c(C)nnc1-c1cccc(N2Cc3c(cc(N(C)C(C)C)nc3C(C)(C)N)C2=O)n1` [Example 139, 4-(2-amino-propan-2-yl)-6-[methyl (propan-2-yl)amino]-2-[6-(5-methyl-4-propyl-4H-1,2,4-triazol-3-yl)pyridin-2-yl]-2,3-dihydro-1H-pyrrolo[3,4-c]pyridin-1-one], for which, in assay [3], the IC50 was 104 nM. In addition, in assay [4], the Ki was 0.27 nM.
For `CC[C@@H](N)c1nc(N2CCC[C@H]2C)cc2c1CN(c1cccc(-c3nncn3CC)n1)C2=O` [Example 140, 4-[(1R)-1-aminopropyl]-2-[6-(4-ethyl-4H-1,2,4-triazol-3-yl)pyridin-2-yl]-6-[(2R)-2-methylpyrroli-din-1-yl]-2,3-dihydro-1H-pyrrolo[3,4-c]pyridin-1-one] the same measures were 53 nM and < 0.07 nM.
For `CCCn1cnnc1-c1cccc(N2Cc3c(cc(N4CCC[C@H]4C)nc3[C@H](N)CC)C2=O)n1` [Example 144, 4-[(1R)-1-aminopropyl]-6-[(2R)-2-methylpyrroli-din-1-yl]-2-[6-(4-propyl-4H-1,2,4-triazol-3-yl)pyridin-2-yl]-2,3-dihydro-1H-pyrrolo[3,4-c]pyridin-1-one] the same measures were 90 nM and 0.11 nM.
For `CC[C@@H]1CCc2nnc(-c3cccc(N4Cc5c(cc(N6CCC[C@H]6C)nc5CNC)C4=O)n3)n21` [Example 203, 2-{6-[(5R)-5-ethyl-6,7-dihydro-5H-pyrrolo[2,1-c] [1,2,4]triazol-3-yl]pyridin-2-yl}-4-[(methyl-amino)methyl]-6-[(2R)-2-methylpyrroli-din-1-yl]-2,3-dihydro-1H-pyrrolo[3,4-c] pyridin-1-one] the same measures were 182 nM and 1.04 nM.
On to `CNCc1nc(N(C)C(C)C)cc2c1CN(c1cccc(-c3nnc4n3[C@@H](CF)CC4)n1)C2=O` [Example 205, 2-{6-[(5R)-5-(fluoromethyl)-6,7-dihydro-5H-pyrrolo[2,1-c][1,2,4]triazol-3-yl]pyridin-2-yl}-4-[(methyl-amino)methyl]-6-[methyl (propan-2-yl)amino]-2,3-dihydro-1H-pyrrolo[3,4-c] pyridin-1-one], for which, in assay [3], the IC50 amounted to 52 nM. For the same compound, in assay [4], the Ki was < 0.05 nM.
As for `CC[C@H]1CCc2nnc(-c3cccc(N4Cc5c(cc(N(C)C)nc5CNC)C4=O)n3)n21` [Example 206, 6-(dimethyl-amino)-2-{6-[(5S)-5-ethyl-6,7-dihydro-5H-pyrrolo[2,1-c] [1,2,4]triazol-3-yl]pyridin-2-yl}-4-[(methyl-amino)methyl]-2,3-dihydro-1H-pyrrolo[3,4-c] pyridin-1-one], the IC50 in assay [3] came to 78 nM. Besides, in assay [4], the Ki was determined as 0.12 nM.
As to `CNCc1nc(N(C)C)cc2c1CN(c1cccc(-c3nnc4n3[C@@H](C)CC4)n1)C2=O` [Example 208, 6-(dimethyl-amino)-4-[(methylamino)methyl]-2-{6-[(5S)-5-methyl-6,7-dihydro-5H-pyrrolo[2,1-c] [1,2,4]triazol-3-yl]pyridin-2-yl}-2,3-dihydro-1H-pyrrolo[3,4-c] pyridin-1-one], in assay [3], the IC50 came out at 85 nM. Also, the Ki in assay [4] was found to be 0.6 nM.
Turning to `CNCc1nc(N(C)C(C)C)cc2c1CN(c1cccc(-c3nnc4n3[C@@H](C)CC4)n1)C2=O` [Example 210, 4-[(methyl-amino)methyl]-2-{6-[(5S)-5-methyl-6,7-dihydro-5H-pyrrolo[2,1-c] [1,2,4]triazol-3-yl]pyridin-2-yl}-6-[methyl (propan-2-yl)amino]-2,3-dihydro-1H-pyrrolo[3,4-c] pyridin-1-one], the IC50 in assay [3] came out at 47 nM. In assay [4], the Ki is < 0.05 nM.
Take `CNCc1nc(N(C)C(C)C)cc2c1CN(c1cccc(-c3nnc4n3[C@@H](C)C[C@@H]4C)n1)C2=O` [Example 211, 2-{6-[(5S,7S)-5,7-dimethyl-6,7-dihydro-5H-pyrrolo[2,1-c] [1,2,4]triazol-3-yl]pyridin-2-yl}-4-[(methyl-amino)methyl]-6-[methyl (propan-2-yl)amino]-2,3-dihydro-1H-pyrrolo[3,4-c] pyridin-1-one]: the IC50 in assay [3] stood at 78 nM. Further, in assay [4], the Ki was < 0.05 nM.
The like results for `CNCc1nc(N(C)C(C)C)cc2c1CN(c1cccc(-c3nnc4n3[C@@H](C)C[C@H]4C)n1)C2=O` [Example 212, 2-{6-[(5S,7R)-5,7-dimethyl-6,7-dihydro-5H-pyrrolo[2,1-c] [1,2,4]triazol-3-yl]pyridin-2-yl}-4-[(methyl-amino)methyl]-6-[methyl (propan-2-yl)amino]-2,3-dihydro-1H-pyrrolo[3,4-c] pyridin-1-one] were, in that order, 159 nM and 0.32 nM.
For `CCCn1cnnc1-c1cccc(N2Cc3c(cc(N(C)C)nc3CNC)C2=O)n1` [Example 300, 6-(dimethylamino)-4-[(methylamino)methyl]-2-[6-(4-propyl-4H-1,2,4-triazol-3-yl)pyridin-2-yl]-2,3-dihydro-1H-pyrrolo[3,4-c]pyridin-1-one], in assay [1], the IC50 is 6.26 nM and the “RSK3 IC50/HPK1 Ki” value is reported as 23. Besides, the IC50 in assay [3] came to 94 nM. In assay [2], the IC50 came out at 1.93 nM and the “PRKD2 IC50/HPK1 Ki” value was determined as 14.
